Measurements: US20250346576A1, “KCNT1 INHIBITORS COMPRISING A PYRAZOLE CORE AND METHODS OF USE” (PRAXIS PRECISION MEDICINES, INC., priority 2022, published 2025)
pIC50: −log10 of the molar value.

target: T1, KCNT1 (KNa1.1, Slack) (Homo sapiens, UniProt Q5JUK3); assay: KCNT1 patch clamp assay (SyncroPatch 384PE, tetracycline inducible HEK-TREX cell line); format: cell-based; conditions: WT KCNT1, HEK-TREX cells, perforated patch, step from -80 mV to 0 mV, room temperature; read-out: WT (KCNT1 inhibition IC50)
T1 construct: expressed in transfected cells; host or cells: HEK-TREX (tetracycline inducible cell line)
T1 sequence (Q5JUK3 1-1230): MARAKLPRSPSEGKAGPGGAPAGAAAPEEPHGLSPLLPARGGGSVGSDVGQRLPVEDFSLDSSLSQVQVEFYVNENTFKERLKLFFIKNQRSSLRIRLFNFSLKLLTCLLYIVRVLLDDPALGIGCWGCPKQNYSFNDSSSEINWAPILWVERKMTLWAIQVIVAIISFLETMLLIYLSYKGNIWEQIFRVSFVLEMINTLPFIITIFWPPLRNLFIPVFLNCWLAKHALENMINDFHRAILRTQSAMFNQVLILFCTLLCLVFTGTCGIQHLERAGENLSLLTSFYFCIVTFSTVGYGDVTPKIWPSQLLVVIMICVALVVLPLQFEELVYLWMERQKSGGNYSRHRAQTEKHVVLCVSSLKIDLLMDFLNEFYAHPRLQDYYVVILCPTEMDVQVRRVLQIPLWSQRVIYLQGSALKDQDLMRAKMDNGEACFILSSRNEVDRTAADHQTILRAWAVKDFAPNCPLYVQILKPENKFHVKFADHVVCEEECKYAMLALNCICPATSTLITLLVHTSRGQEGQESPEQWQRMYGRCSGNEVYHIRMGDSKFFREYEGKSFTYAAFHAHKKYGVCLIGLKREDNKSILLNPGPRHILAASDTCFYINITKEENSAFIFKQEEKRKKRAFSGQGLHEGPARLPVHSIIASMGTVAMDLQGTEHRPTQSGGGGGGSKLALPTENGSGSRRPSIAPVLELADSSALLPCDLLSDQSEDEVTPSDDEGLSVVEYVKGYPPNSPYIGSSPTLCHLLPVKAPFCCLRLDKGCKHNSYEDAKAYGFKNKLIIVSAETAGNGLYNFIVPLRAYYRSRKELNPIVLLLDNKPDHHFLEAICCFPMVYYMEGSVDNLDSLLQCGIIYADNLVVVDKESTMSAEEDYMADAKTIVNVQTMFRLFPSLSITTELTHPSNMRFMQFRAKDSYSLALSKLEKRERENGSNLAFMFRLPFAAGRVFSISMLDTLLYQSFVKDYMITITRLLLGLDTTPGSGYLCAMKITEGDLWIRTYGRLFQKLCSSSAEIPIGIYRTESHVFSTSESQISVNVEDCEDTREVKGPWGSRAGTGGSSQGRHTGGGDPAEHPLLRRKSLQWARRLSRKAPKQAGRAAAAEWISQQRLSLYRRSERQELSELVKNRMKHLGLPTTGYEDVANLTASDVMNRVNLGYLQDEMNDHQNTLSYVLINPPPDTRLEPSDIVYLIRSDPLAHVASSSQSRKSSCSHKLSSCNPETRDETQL
Protocol: Inhibition of KCNT1 (KNa1.1, Slack) was evaluated using a tetracycline inducible cell line (HEK-TREX). Currents were recorded using the SyncroPatch 384PE automated, patch clamp system. Pulse generation and data collection were performed with PatchController384 V1.3.0 and DataController384 V1.2.1 (Nanion Technologies). The access resistance and apparent membrane capacitance were estimated using built-in protocols. Current was recorded in perforated patch mode (10 μM escin) from a population of cells. The cells were lifted, triturated, and resuspended at 800,000 cells/ml. The cells were allowed to recover in the cell hotel prior to experimentation. Currents were recorded at room temperature. The external solution contained the following (in mM): NaCl 105, NMDG 40, KCl 4, MgCl2 1, CaCl2 5, and HEPES 10 (pH=7.4, Osmolarity ˜300 mOsm). The extracellular solution was used as the wash, reference, and compound delivery solution. The internal solution contained the following (in mM): NaCl 70, KF 70, KCl 10, EGTA 5, HEPES 5, and Escin 0.01 (pH=7.2, Osmolarity ˜295 mOsm). Escin is made at a 5 mM stock in water, aliquoted, and stored at −20° C. The compound plate was created at 2× concentrated in the extracellular solution. The compound was diluted to 1:2 when added to the recording well. The amount of DMSO in the extracellular solution was held constant at the level used for the highest tested concentration. A holding potential of −80 mV with a 100 ms step to 0 mV was used. Mean current was measured during the step to 0 mV. […] The average mean current from 3 sweeps was calculated and the percent inhibition of each compound was calculated. The percent inhibition as a function of the compound concentration was fit with a Hill equation to derive IC50, slope, minimum parameters, and maximum parameters. If KCNT1 inhibition was less than 50% at the highest tested concentration or if an IC50 could not be calculated, then a percent inhibition was reported in place of the IC50.
In this table, “A” indicates IC50 of less than or equal to 1 μM; “B” indicates inhibition of between 1 μM to 20 μM; and “C” indicates inhibition of greater than or equal to 20 μM.

Q: How did the pIC50 turn out when `COc1cc(-c2cc(CNC(=O)c3cc(C(F)(F)F)nn3C)n(C)n2)ccn1` [Compound 1036] was run?
A: ≥ 6.00

Q: `CC(C)Oc1cc(C(C)NC(=O)c2cc(C(F)(F)F)nn2C)n(C)n1` (stereo not shown) [Compound 1031] was tested. Which pIC50 did it give?
A: ≤ 4.70

Q: `CC(NC(=O)c1cc(C(F)(F)F)nn1C)c1cc(-c2ccc(C#N)nc2)nn1C` (stereo not shown) [Compound 1016] was tested. Which pIC50 did it give?
A: ≤ 4.70

Q: `CC(NC(=O)c1cc(C(F)(F)F)nn1C)c1cc(-c2ccccc2)nn1C` (single isomer, unassigned) [Compound 1010] was tested. Which pIC50 did it give?
A: 4.70 to 6.00

Q: How did the pIC50 turn out when `Cc1c(-c2ccnc(C(F)(F)F)c2)nn(C)c1CNC(=O)c1cc(C(F)(F)F)nn1C` [Compound 1030] was run?
A: ≥ 6.00

Q: How did the pIC50 turn out when `CC(NC(=O)c1cc(C(F)(F)F)nn1C)c1cc(Nc2ccccc2)nn1C` (stereo not shown) [Compound 1024] was run?
A: 4.70 to 6.00

Q: `CCn1nc(-c2ccnc(C(F)(F)F)c2)cc1C(C)NC(=O)c1cc(C(F)(F)F)nn1C` (single isomer, unassigned) [Compound 1004] was tested. Which pIC50 did it give?
A: ≥ 6.00

Q: With `CC(NC(=O)c1cc(C(F)(F)F)nn1C)c1cc(C(F)(F)F)nn1C` (single isomer, unassigned) [Compound 1014] as the molecule, how does the pIC50 read?
A: 4.70 to 6.00

Q: With `Cn1nc(-c2ccnc(C(F)(F)F)c2)cc1CNC(=O)c1ccccc1` [Compound 1040] as the molecule, how does the pIC50 read?
A: ≥ 6.00

Q: How did the pIC50 turn out when `COc1ccc(-c2cc(C(C)NC(=O)c3cc(C(F)(F)F)nn3C)n(C)n2)cn1` (stereo not shown) [Compound 1013] was run?
A: ≥ 6.00

Q: `CC(C)c1cc(C(=O)NCc2cc(-c3ccnc(C(F)(F)F)c3)nn2C)n(C)n1` [Compound 1039] was tested. Which pIC50 did it give?
A: ≥ 6.00

Q: With `Cc1cc(-c2cc(CNC(=O)c3cc(C(F)(F)F)nn3C)n(C)n2)c(F)cn1` [Compound 1041] as the molecule, how does the pIC50 read?
A: ≥ 6.00

Q: How did the pIC50 turn out when `CC(NC(=O)c1cc(C(F)(F)F)nn1C)c1cc(C(F)(F)F)nn1C` (single isomer, unassigned) [Compound 1015] was run?
A: 4.70 to 6.00

Q: `CC(NC(=O)c1cc(C(F)(F)F)nn1C)c1cc(-c2ccncc2)nn1C` (single isomer, unassigned) [Compound 1008] was tested. Which pIC50 did it give?
A: 4.70 to 6.00

Q: `CC(NC(=O)c1cc(C(F)(F)F)nn1C)c1cc(-c2ccncc2)nn1C` (single isomer, unassigned) [Compound 1003] was tested. Which pIC50 did it give?
A: ≤ 4.70

Q: `CC(NC(=O)c1cc(C(F)(F)F)nn1C)c1cc(N2CCCCC2)nn1C` (stereo not shown) [Compound 1023] was tested. Which pIC50 did it give?
A: 4.70 to 6.00

Q: With `Cn1nc(-c2ccnc(C(F)(F)F)c2)cc1CNC(=O)c1cc(C(F)F)nn1C` [Compound 1033] as the molecule, how does the pIC50 read?
A: ≥ 6.00

Q: `Cn1nc(C(F)F)cc1C(=O)NC1(c2cc(-c3ccnc(C(F)(F)F)c3)nn2C)CC1` [Compound 1034] was tested. Which pIC50 did it give?
A: ≥ 6.00

Q: With `Cc1cccc(-c2cc(C(C)NC(=O)c3cc(C(F)(F)F)nn3C)n(C)n2)n1` (stereo not shown) [Compound 1017] as the molecule, how does the pIC50 read?
A: 4.70 to 6.00

Q: With `Cn1nc(-c2ccnc(C(F)(F)F)c2)cc1CNC(=O)c1cc(C(F)(F)F)nn1C` [Compound 1019] as the molecule, how does the pIC50 read?
A: ≥ 6.00

Q: `CCn1nc(-c2ccnc(C(F)(F)F)c2)cc1CNC(=O)c1cc(C(F)(F)F)nn1C` [Compound 1029] was tested. Which pIC50 did it give?
A: ≥ 6.00

Q: With `CC(NC(=O)c1cc(C(F)(F)F)nn1C)c1cc(N(C)c2ccccc2)nn1C` (stereo not shown) [Compound 1025] as the molecule, how does the pIC50 read?
A: 4.70 to 6.00

Q: `Cc1cc(-c2cc(C(C)NC(=O)c3cc(C(F)(F)F)nn3C)n(C)n2)ccn1` (single isomer, unassigned) [Compound 1005] was tested. Which pIC50 did it give?
A: 4.70 to 6.00

Q: How did the pIC50 turn out when `Cn1nc(-c2ccnc(C3CC3)c2)cc1CNC(=O)c1cc(C(F)(F)F)nn1C` [Compound 1038] was run?
A: ≥ 6.00

Q: `Cn1nc(C(F)(F)F)cc1C(=O)NC1(c2cc(-c3ccnc(C(F)(F)F)c3)nn2C)CC1` [Compound 1035] was tested. Which pIC50 did it give?
A: ≥ 6.00

Q: `CC(NC(=O)c1cc(C(F)(F)F)nn1C)c1cc(-c2ccc(CO)nc2)nn1C` (stereo not shown) [Compound 1009] was tested. Which pIC50 did it give?
A: ≤ 4.70

Q: How did the pIC50 turn out when `CC(NC(=O)c1cc(C(F)(F)F)nn1C)c1cc(NC2CCCC2)nn1C` (stereo not shown) [Compound 1026] was run?
A: ≤ 4.70

Q: `Cc1ncc(-c2cc(C(C)NC(=O)c3cc(C(F)(F)F)nn3C)n(C)n2)cn1` (stereo not shown) [Compound 1012] was tested. Which pIC50 did it give?
A: ≤ 4.70

Q: How did the pIC50 turn out when `CC(NC(=O)c1cc(C(F)(F)F)nn1C)c1cc(-c2ccccc2)nn1C` (single isomer, unassigned) [Compound 1011] was run?
A: 4.70 to 6.00

Q: `CC(NC(=O)c1cc(C(F)(F)F)nn1C)c1cc(-c2ccc(C(N)=O)cc2)nn1C` (stereo not shown) [Compound 1022] was tested. Which pIC50 did it give?
A: ≤ 4.70

Q: `Cc1cc(-c2cc(C(C)NC(=O)c3cc(C(F)(F)F)nn3C)n(C)n2)ccn1` (single isomer, unassigned) [Compound 1006] was tested. Which pIC50 did it give?
A: 4.70 to 6.00

Q: `CC(NC(=O)c1cc(C(F)(F)F)nn1C)c1cc(Cc2ccccc2)nn1C` (stereo not shown) [Compound 1028] was tested. Which pIC50 did it give?
A: 4.70 to 6.00

Q: With `CC(NC(=O)c1cc(C(F)(F)F)nn1C)c1cc(-c2ccnc(C(F)(F)F)c2)nn1C` (stereo not shown) [Compound 1020] as the molecule, how does the pIC50 read?
A: ≥ 6.00

Q: `CC(NC(=O)c1cc(C(F)(F)F)nn1C)c1cc(-c2ccc(C#N)cc2)nn1C` (stereo not shown) [Compound 1021] was tested. Which pIC50 did it give?
A: 4.70 to 6.00

Q: With `CCOc1cc(-c2cc(CNC(=O)c3cc(C(F)(F)F)nn3C)n(C)n2)ccn1` [Compound 1037] as the molecule, how does the pIC50 read?
A: ≥ 6.00

Q: With `CCn1nc(-c2ccnc(C(F)(F)F)c2)cc1C(C)NC(=O)c1cc(C(F)(F)F)nn1C` (single isomer, unassigned) [Compound 1007] as the molecule, how does the pIC50 read?
A: ≥ 6.00

Q: With `CC(NC(=O)c1cc(C(F)(F)F)nn1C)c1cc(N(C)C2CCCC2)nn1C` (stereo not shown) [Compound 1027] as the molecule, how does the pIC50 read?
A: 4.70 to 6.00

Q: `CC(NC(=O)c1cc(C(F)(F)F)nn1C)c1cc(-c2ccnc(C(F)(F)F)c2)nn1C` (single isomer, unassigned) [Compound 1001] was tested. Which pIC50 did it give?
A: ≥ 6.00

Q: How did the pIC50 turn out when `CC(NC(=O)c1cc(C(F)(F)F)nn1C)c1cc(Oc2ccccc2)nn1C` (stereo not shown) [Compound 1032] was run?
A: 4.70 to 6.00

Q: `CC(NC(=O)c1cc(C(F)(F)F)nn1C)c1cc(-c2ccc(C(F)(F)F)nc2)nn1C` (stereo not shown) [Compound 1018] was tested. Which pIC50 did it give?
A: 4.70 to 6.00
